Laboratory results taken from patent US9447136B2, “Semisynthetic derivatives of Nystatin A1” (BLIRT S.A., priority 2012, dated 2016).
≈ marks a conversion by molar mass, not a printed value. Where two headings read alike, the source gives them in different places.

How the values were obtained:
[1] = tested on: Candida albicans B4; test: Antifungal activity towards resistant (MDR) strains; type: cell-based; settings: fluconazole-resistant due to the overexpression of CaMDR1
Method in brief: (§1)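 Optical density at λ=660 nm served as read-out in a broth microdilution test (buffered RPMI 1640, M27-A2 standard procedure). MIC corresponded to the concentration reducing A660 to no more than 20% of the control sample value.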

[2] = tested on: Candida albicans F2; test: as above; type: cell-based; settings: fluconazole sensitive, parent strain for F5
Method in brief: (§2)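 Broth microdilution per CLSI M27-A2 in buffered RPMI 1640 with serial compound dilutions; growth read as A660. MIC taken from A660-versus-concentration curves as the concentration giving A660 at most 20% of untreated control.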

[3] = tested on: Candida albicans F5; test: as above; type: cell-based; settings: fluconazole-resistant due to the overexpression of CaMDR1 and ERG11
Method in brief: as §1

[4] = tested on: Candida albicans 5674; test: as above; type: cell-based; settings: C. albicans 5674 overexpressing CDR1 and CDR2
Method in brief: as §1

[5] = tested on: Candida albicans STY31; test: as above; type: cell-based; settings: 5674 mutant derivative, deletion of CDR1 and CDR2
Method in brief: as §1

[6] = tested on: Candida albicans STY7; test: as above; type: cell-based; settings: 5674 mutant derivative, deletion of CDR2
Method in brief: as §1

[7] = tested on: Candida albicans STY19; test: as above; type: cell-based; settings: 5674 mutant derivative, deletion of CDR1
Method in brief: as §1

[8] = tested on: Candida albicans B3; test: as above; type: cell-based; settings: fluconazole sensitive, parent strain for B4
Method in brief: as §2

[9] = tested on: Candida albicans Gu4; test: as above; type: cell-based; settings: fluconazole sensitive, parent strain for Gu5
Method in brief: as §2

[10] = tested on: Candida albicans Gu5; test: as above; type: cell-based; settings: fluconazole-resistant due to the overexpression of CDR1 and CDR2
Method in brief: as §2

[11] = tested on: Candida albicans ATCC 10231; test: Antifungal activity in vitro, serial dilution in RPMI 1640; type: cell-based; settings: for Antifungal activity Candida albicans ATCC 10231 IC50 / Antifungal activity Candida albicans ATCC 10231 MIC: Table 2A, RPMI 1640, pH 7.0; for Antifungal activity Candida albicans ATCC 10231 IC50: A531 50% of control; for Antifungal activity Candida albicans ATCC 10231 MIC: A531 at most 20% of control; for MIC Candida albicans ATCC 10231: Table 2B
Method in brief: (§3)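 Broth serial dilution per M27-A2 in buffered RPMI 1640, pH 7.0. Growth read as optical density at 531 nm; IC50 interpolated as concentration giving 50% of control A531, MIC as lowest concentration giving at most 20% of control A531.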

[12] = tested on: Candida dubliniensis CBS 7987; test: as above; type: cell-based; settings: Table 2B
Method in brief: as §3

[13] = tested on: Candida tropicalis KKP 334; test: as above; type: cell-based; settings: Table 2A; RPMI 1640, pH 7.0
Method in brief: as §3

[14] = tested on: Candida arborea KKP 319; test: as above; type: cell-based; settings: Table 2B
Method in brief: as §3

[15] = tested on: Saccharomyces cerevisiae ATCC 9763; test: as above; type: cell-based; settings: for Antifungal activity Saccharomyces cerevisiae ATCC 9763 MIC: Table 2A, RPMI 1640, pH 7.0, A531 at most 20% of control; for MIC Saccharomyces cerevisiae ATCC 9763: Table 2B
Method in brief: as §3

[16] = tested on: Candida quilliermondii DSM 11947; test: as above; type: cell-based; settings: Table 2B
Method in brief: as §3

[17] = tested on: Candida glabrata DSM 11226; test: as above; type: cell-based; settings: Table 2A; RPMI 1640, pH 7.0
Method in brief: as §3

[18] = tested on: Candida lusitaniae DSM 70102; test: as above; type: cell-based; settings: Table 2A; RPMI 1640, pH 7.0
Method in brief: as §3

[19] = tested on: Aspergillus niger LOCK E201; test: as above; type: cell-based; settings: Table 2B
Method in brief: as §3

[20] = tested on: Candida stellatoidea CBS 1905; test: as above; type: cell-based; settings: Table 2B
Method in brief: as §3

[21] = tested on: Candida krusei DSM 6128; test: as above; type: cell-based; settings: Table 2A; RPMI 1640, pH 7.0
Method in brief: as §3

[22] = tested on: Candida pseudotropicalis KKP 324; test: as above; type: cell-based; settings: Table 2B
Method in brief: as §3

[23] = tested on: Candida lipolytica KKP 322; test: as above; type: cell-based; settings: Table 2B
Method in brief: as §3

[24] = tested on: Trichoderma viride LOCK E159; test: as above; type: cell-based; settings: Table 2B
Method in brief: as §3

[25] = tested on: Candida parapsilosis DSM 5784; test: as above; type: cell-based; settings: Table 2B
Method in brief: as §3

[26] = tested on: LLC-PK1; test: Cytotoxic activity against mammalian cells in tissue culture (MTT); type: cell-based, pig
Method in brief: (§4)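 Cells at 1.2×10^4/well were exposed to serial 2× DMSO dilutions for 120 h at 37 °C: CCRF-CEM in RPMI 1640 + 10% FBS, HepG2 in MEM + 10% FBS, LLC-PK1 in Medium 199 + 3% FBS. MTT was added for 4 h and A540 read. IC50 is the concentration halving A540 versus DMSO control.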

[27] = tested on: Human erythrocytes; test: Hemotoxicity (hemolytic activity); settings: human erythrocytes; for EH10: concentration causing 10% of hemolysis
Method in brief: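 Human erythrocytes in saline (2×10^7/ml) were incubated with serially diluted compound at 37 °C for 30 min, then centrifuged. Released hemoglobin was read as A540 against 0.1% Triton X-100 as full hemolysis. EH50 is the interpolated concentration giving 50% of the control A540.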

[28] = tested on: CCRF-CEM; test: Cytotoxic activity against mammalian cells in tissue culture (MTT); type: cell-based, human
Method in brief: as §4

[29] = tested on: HepG2; test: as above; type: cell-based, human
Method in brief: as §4

[30] = type: physicochemical
Text: As described herein, a compound of the invention may also be provided in the form of a complex, with a complexing agent.

Q: Which results are given for C[C@@H]1[C@H](O)[C@@H](C)/C=C/C=C/CC/C=C/C=C/C=C/C=C/C(O[C@H]2O[C@H](C)[C@@H](O)[C@H](N)[C@@H]2O)CC2O[C@](O)(CC(O)C(O)CCC(O)CC(O)CC(O)CC(=O)O[C@H]1C)CC(O)C2C(=O)O (stereo partly shown) [Nystatin, Nystatin A1]?
A: MIC Candida albicans B4 [1]: 1 µg/mL (≈ 1.08 µM); MIC Candida albicans F2 [2]: 1 µg/mL (≈ 1.08 µM); MIC Candida albicans F5 [3]: 1 µg/mL (≈ 1.08 µM); MIC Candida albicans 5674 [4]: 1 µg/mL (≈ 1.08 µM); MIC Candida albicans STY31 [5]: 1 µg/mL (≈ 1.08 µM); MIC Candida albicans STY7 [6]: 1 µg/mL (≈ 1.08 µM); MIC Candida albicans STY19 [7]: 1 µg/mL (≈ 1.08 µM); MIC Candida albicans B3 [8]: 0.5 µg/mL (≈ 0.54 µM); MIC Candida albicans Gu4 [9]: 0.5 µg/mL (≈ 0.54 µM); MIC Candida albicans Gu5 [10]: 1 µg/mL (≈ 1.08 µM); Antifungal activity Candida albicans ATCC 10231 IC50 [11]: 0.23 µg/mL; Antifungal activity Candida albicans ATCC 10231 MIC [11]: 0.5 µg/mL; MIC Candida albicans ATCC 10231 [11]: 0.5 µg/mL (≈ 0.54 µM); MIC Candida dubliniensis CBS 7987 [12]: 1 µg/mL (≈ 1.08 µM); Antifungal activity Candida tropicalis KKP 334 MIC [13]: 0.5 µg/mL; MIC Candida arborea KKP 319 [14]: 1 µg/mL (≈ 1.08 µM); Antifungal activity Saccharomyces cerevisiae ATCC 9763 MIC [15]: 0.5 µg/mL; MIC Saccharomyces cerevisiae ATCC 9763 [15]: 0.5 µg/mL (≈ 0.54 µM); MIC Candida quilliermondii DSM 11947 [16]: 0.5 µg/mL (≈ 0.54 µM); Antifungal activity Candida glabrata DSM 11226 MIC [17]: 1 µg/mL; Antifungal activity Candida lusitaniae DSM 70102 MIC [18]: 0.25 µg/mL; MIC Aspergillus niger LOCK E201 [19]: 1 µg/mL (≈ 1.08 µM); MIC Candida stellatoidea CBS 1905 [20]: 1 µg/mL (≈ 1.08 µM); Antifungal activity Candida krusei DSM 6128 MIC [21]: 1 µg/mL; MIC Candida pseudotropicalis KKP 324 [22]: 1 µg/mL (≈ 1.08 µM); MIC Candida lipolytica KKP 322 [23]: 0.5 µg/mL (≈ 0.54 µM); MIC Trichoderma viride LOCK E159 [24]: 1 µg/mL (≈ 1.08 µM); MIC Candida parapsilosis DSM 5784 [25]: 1 µg/mL (≈ 1.08 µM); Cytotoxicity IC50 LLC-PK1 [26]: >100 µg/mL; % of hemolysis at the concentration 60 μg ml^−1 ([27]; 60 μg ml^−1): 100%; % of hemolysis at the concentration 300 μg ml^−1 ([27]; 300 μg ml^−1): 100%; EH10 [27]: 22.13 µg/mL; Cytotoxicity IC50 CCRF-CEM [28]: >100 µg/mL; Cytotoxicity IC50 HepG2 [29]: 24.9 ± 2.332 µg/mL

Q: What does the source list for CC1OC(O[C@H]2/C=C/C=C/C=C/C=C/CC/C=C/C=C/[C@H](C)[C@@H](O)[C@@H](C)[C@H](C)OC(=O)C[C@H](O)C[C@H](O)C[C@H](O)CC[C@@H](O)[C@H](O)CC3(O)C[C@H](O)[C@@H](C(=O)O)[C@H](C2)O3)C(O)C(NC(=S)NCC(C)(C)CN(C)C)C1O (stereo partly shown) [Compound N19, N-{3-[3-(N,N-dimethylamino)-2,2-dimethylpropyl]thioureidyl}nystatin A1]?
A: MIC Candida albicans B4 [1]: 4 µg/mL (≈ 3.64 µM); MIC Candida albicans F2 [2]: 4 µg/mL (≈ 3.64 µM); MIC Candida albicans F5 [3]: 4 µg/mL (≈ 3.64 µM); MIC Candida albicans 5674 [4]: 4 µg/mL (≈ 3.64 µM); MIC Candida albicans STY31 [5]: 4 µg/mL (≈ 3.64 µM); MIC Candida albicans STY7 [6]: 4 µg/mL (≈ 3.64 µM); MIC Candida albicans STY19 [7]: 4 µg/mL (≈ 3.64 µM); MIC Candida albicans B3 [8]: 4 µg/mL (≈ 3.64 µM); MIC Candida albicans Gu4 [9]: 4 µg/mL (≈ 3.64 µM); MIC Candida albicans Gu5 [10]: 4 µg/mL (≈ 3.64 µM); Antifungal activity Candida albicans ATCC 10231 IC50 [11]: 2.90 µg/mL; Antifungal activity Candida albicans ATCC 10231 MIC [11]: 4 µg/mL; MIC Candida albicans ATCC 10231 [11]: 4 µg/mL (≈ 3.64 µM); MIC Candida dubliniensis CBS 7987 [12]: 4 µg/mL (≈ 3.64 µM); Antifungal activity Candida tropicalis KKP 334 MIC [13]: 4 µg/mL; MIC Candida arborea KKP 319 [14]: 4 µg/mL (≈ 3.64 µM); Antifungal activity Saccharomyces cerevisiae ATCC 9763 MIC [15]: 4 µg/mL; MIC Saccharomyces cerevisiae ATCC 9763 [15]: 4 µg/mL (≈ 3.64 µM); MIC Candida quilliermondii DSM 11947 [16]: 4 µg/mL (≈ 3.64 µM); Antifungal activity Candida glabrata DSM 11226 MIC [17]: 8 µg/mL; Antifungal activity Candida lusitaniae DSM 70102 MIC [18]: 4 µg/mL; MIC Aspergillus niger LOCK E201 [19]: 8 µg/mL (≈ 7.28 µM); MIC Candida stellatoidea CBS 1905 [20]: 8 µg/mL (≈ 7.28 µM); Antifungal activity Candida krusei DSM 6128 MIC [21]: 8 µg/mL; MIC Candida pseudotropicalis KKP 324 [22]: 4 µg/mL (≈ 3.64 µM); MIC Candida lipolytica KKP 322 [23]: 4 µg/mL (≈ 3.64 µM); MIC Trichoderma viride LOCK E159 [24]: 8 µg/mL (≈ 7.28 µM); MIC Candida parapsilosis DSM 5784 [25]: 4 µg/mL (≈ 3.64 µM); Cytotoxicity IC50 LLC-PK1 ([26]; LLC-PK1, 120 h, MTT): >100 µg/mL; EH10 [27]: 209.91 µg/mL; Cytotoxicity IC50 CCRF-CEM ([28]; CCRF-CEM, 120 h, MTT): >100 µg/mL; Cytotoxicity IC50 HepG2 ([29]; HepG2, 120 h, MTT): >100 µg/mL

Q: Which “water solubility of the salt” value [30] does the source give for CCCN(CC(=O)C(O)C(O)C(O)CO)C1C(O)C(C)OC(OC2C=CC=CC=CC=CCCC=CC=CC(C)C(O)C(C)C(C)OC(=O)CC(O)CC(O)CCC(O)C(O)CC(O)CC3(O)CC(O)C(C(=O)O)C(C2)O3)C1O.CNCC(O)C(O)C(O)C(O)CO [Compound N59, N-methyl-D-glucamine salt of N-fructosyl-N-n-propylnystatin A1] here?
A: water soluble
